Patent publication US8598085B2, “2-(2-fluoro-substituted phenyl)-6-amino-5-chloro-4-pyrimidinecarboxylates and their use as herbicides” (Dow AgroSciences LLC, priority 2007, dated 2013)

Tests used:
[1] = test system: CIRAR—Canada thistle (Cirsium arvense); test: General postemergence herbicidal activity, Canada thistle; format: in vivo; settings: post-emergence, 336 h, post-emergent, rate 140 g ai/ha, visual score after 14 days (0 no injury, 100 complete kill), read-out: % Growth Reduction CIRAR
Procedure: (§1) Seeds or nutlets of the desired test plant species were planted in Sun Gro MetroMix® 306 planting mixture, which typically has a pH of 6.0 to 6.8 and an organic matter content of about 30 percent, in plastic pots with a surface area of 64 square centimeters. When required to ensure good germination and healthy plants, a fungicide treatment and/or other chemical or physical treatment was applied. The plants were grown for 7-21 days in a greenhouse with an approximate 15 hour photoperiod which was maintained at about 23-29° C. during the day and 22-28° C. during the night. Nutrients and water were added on a regular basis and supplemental lighting was provided with overhead metal halide 1000-Watt lamps as necessary. The plants were employed for testing when they reached the first or second true leaf stage.
(§2) A weighed amount, determined by the highest rate to be tested, of each test compound was placed in a 25 mL glass vial and was dissolved in 4 mL of a 97:3 v/v (volume/volume) mixture of acetone and dimethyl sulfoxide (DMSO) to obtain concentrated stock solutions. […] The concentrated stock solutions obtained were diluted with 20 mL of an aqueous mixture containing acetone, water, isopropyl alcohol, DMSO, Atplus 411F crop oil concentrate, and Triton X-155 surfactant in a 48.5:39:10:1.5:1.0:0.02 v/v ratio to obtain spray solutions containing the highest application rates. Additional application rates were obtained by serial dilution of 12 mL of the high rate solution into a solution containing 2 mL of 97:3 v/v (volume/volume) mixture of acetone and DMSO and 10 mL of an aqueous mixture containing acetone, water, isopropyl alcohol, DMSO, Atplus 411F crop oil concentrate, and Triton X-155 surfactant in a 48.5:39:10:1.5:1.0:0.02 v/v ratio to obtain ½X, ¼X, ⅛X and 1/16X rates of the high rate. Compound requirements are based upon a 12 mL application volume at a rate of 187 L/ha. Formulated compounds were applied to the plant material with an overhead Mandel track sprayer equipped with 8002E nozzles calibrated to deliver 187 L/ha over an application area of 0.503 square meters at a spray height of 18 inches […] above the average plant canopy height. Control plants were sprayed in the same manner with the solvent blank.
(§3) The treated plants and control plants were placed in a greenhouse as described above and watered by sub-irrigation to prevent wash-off of the test compounds. After 14 days, the condition of the test plants as compared with that of the untreated plants was determined visually and scored on a scale of 0 to 100 percent where 0 corresponds to no injury and 100 corresponds to complete kill.

[2] = test system: ABUTH—Velvetleaf (Abutilon theophrasti); test: General postemergence herbicidal activity, velvetleaf; format: in vivo; settings: post-emergence, 336 h, post-emergent, rate 140 g ai/ha, visual score after 14 days (0 no injury, 100 complete kill), read-out: % Growth Reduction ABUTH
Procedure: as §1, §2, §3

[3] = test system: ECHCG—Barnyardgrass (Echinochloa crus-galli); test: General postemergence herbicidal activity, barnyardgrass; format: in vivo; settings: post-emergence, 336 h, post-emergent, rate 140 g ai/ha, visual score after 14 days (0 no injury, 100 complete kill), read-out: % Growth Reduction ECHCG
Procedure: as §1, §2, §3

[4] = test system: POLCO—Wild buckwheat (Polygonum convolvulus); test: General postemergence herbicidal activity, wild buckwheat; format: in vivo; settings: Fallopia convolvulus, post-emergence, 336 h; post-emergent, rate 140 g ai/ha, visual score after 14 days (0 no injury, 100 complete kill); read-out: % Growth Reduction POLCO
Procedure: as §1, §2, §3

[5] = test system: SORVU—Common sorghum (Sorghum vulgare); test: General preemergence herbicidal activity, common sorghum; format: in vivo; settings: pre-emergent, rate 140 g ai/ha, visual score after 20-22 days (0 no injury, 100 complete kill or no emergence), read-out: % Growth Inhibition SORVU
Excerpt: (§4) Seeds of the desired test plant species were planted in a soil matrix prepared by mixing a loam soil (43 percent silt, 19 percent clay, and 38 percent sand, with a pH of about 8.1 and an organic matter content of about 1.5 percent) and sand in a 70 to 30 ratio. The soil matrix was contained in plastic pots with a surface area of 113 square centimeters. When required to ensure good germination and healthy plants, a fungicide treatment and/or other chemical or physical treatment was applied. A weighed amount, determined by the highest rate to be tested, of each test compound was placed in a 25 mL glass vial and was dissolved in 6 mL of a 97:3 v/v (volume/volume) mixture of acetone and DMSO to obtain concentrated stock solutions. […] The stock solutions obtained were diluted with 18 mL of a 0.1% v/v aqueous solution of Tween® 20 surfactant to obtain spray solutions containing the highest application rate. Additional application rates were obtained by serial dilution of 12 mL of the high rate solution into a solution containing 3 mL of 97:3 v/v mixture of acetone and DMSO and 9 mL of the 0.1% v/v aqueous solution of Tween® 20 surfactant to obtain 1⁄2X, 1⁄4X, 1⁄8X and 1/16X rates of the high rate. Compound requirements are based upon a 12 mL application volume at a rate of 187 L/ha. Formulated compounds were applied to the plant material with an overhead Mandel track sprayer equipped with […] nozzles calibrated to deliver 187 L/ha over an application area of 0.503 square meters at a spray height of 18 inches (43 cm) above the soil surface. Control plants were sprayed in the same manner with the solvent blank. The treated pots and control pots were placed in a greenhouse maintained with an approximate 15 hour photoperiod and temperatures of about 23-29° C. during the day and 22-28° C. during the night. Nutrients and water were added on a regular basis and supplemental lighting was provided with overhead metal halide 1000-Watt lamps as necessary. The water was added by top-irrigation. After 20-22 days, the condition of the test plants that germinated and grew as compared with that of the untreated plants that emerged and grew was determined visually and scored on a scale of 0 to 100 percent where 0 corresponds to no injury and 100 corresponds to complete kill or no emergence.

[6] = test system: CHEAL—Common lambsquarters (Chenopodium album); test: General preemergence herbicidal activity, common lambsquarters; format: in vivo; settings: pre-emergent, rate 140 g ai/ha, visual score after 20-22 days (0 no injury, 100 complete kill or no emergence), read-out: % Growth Inhibition CHEAL
Excerpt: as §4

ZEAMX—Corn (Zea mays) = test: General preemergence herbicidal activity, corn; format: in vivo; settings: pre-emergent, rate 140 g ai/ha, visual score after 20-22 days (0 no injury, 100 complete kill or no emergence), read-out: % Growth Inhibition ZEAMX
Excerpt: as §4

[7] = test system: ABUTH—Velvetleaf (Abutilon theophrasti); test: General preemergence herbicidal activity, velvetleaf; format: in vivo; settings: pre-emergent, rate 140 g ai/ha, visual score after 20-22 days (0 no injury, 100 complete kill or no emergence), read-out: % Growth Inhibition ABUTH
Excerpt: as §4

[8] = test system: HELAN—Common sunflower (Helianthus annuus); test: General preemergence herbicidal activity, common sunflower; format: in vivo; settings: pre-emergent, rate 140 g ai/ha, visual score after 20-22 days (0 no injury, 100 complete kill or no emergence), read-out: % Growth Inhibition HELAN
Excerpt: as §4

melting point [°C]	Structure (SMILES)	pest or weed control at 140 g/ha [1] [%]	pest or weed control at 140 g/ha [2] [%]	pest or weed control at 140 g/ha [3] [%]	pest or weed control at 140 g/ha [4] [%]	inhibition at 140 g/ha [5] [%]	inhibition at 140 g/ha [6] [%]	inhibition at 140 g/ha (ZEAMX—Corn (Zea mays)) [%]	inhibition at 140 g/ha [7] [%]	inhibition at 140 g/ha [8] [%]
194 to 196	COC(=O)c1nc(-c2ccc(Cl)cc2F)nc(N)c1Cl [Compound 1, 6-Amino-5-chloro-2-(4-chloro-2-fluorophenyl)pyrimidine-4-carboxylic acid methyl ester]	100	100	90	95	–	–	–	–	–
187 to 189	COC(=O)c1nc(-c2ccc(Cl)c(F)c2F)nc(N)c1Cl [Compound 2, 6-Amino-5-chloro-2-(4-chloro-2,3-difluorophenyl)pyrimidine-4-carboxylic acid methyl ester]	100	100	95	100	–	–	–	–	–
–	COC(=O)c1nc(-c2ccc(C)c(F)c2F)nc(N)c1Cl [Compound 4, 6-Amino-5-chloro-2-(2,3-difluoro-4-methylphenyl)pyrimidine-4-carboxylic acid methyl ester]	60	99	90	80	–	–	–	–	–
–	COC(=O)c1nc(-c2ccc(C(F)(F)F)cc2F)nc(N)c1Cl [Compound 5, 6-Amino-5-chloro-2-(2-fluoro-4-trifluoromethylphenyl)pyrimidine-4-carboxylic acid methyl ester]	85	70	0	80	–	–	–	–	–
–	COC(=O)c1nc(-c2ccc(C(F)(F)F)c(F)c2F)nc(N)c1Cl [Compound 6, 6-Amino-5-chloro-2-(2,3-difluoro-4-trifluoromethylphenyl)pyrimidine-4-carboxylic acid methyl ester]	80	90	25	95	–	–	–	–	–
–	COC(=O)c1nc(-c2cc(F)c(C)cc2F)nc(N)c1Cl [Compound 8, 6-Amino-5-chloro-2-(2,5-difluoro-4-methylphenyl)pyrimidine-4-carboxylic acid methyl ester]	45	95	0	60	–	–	–	–	–
–	COC(=O)c1nc(-c2ccc(C(F)F)cc2F)nc(N)c1Cl [Compound 9, 6-Amino-5-chloro-2-(4-difluoromethyl-2-fluorophenyl)pyrimidine-4-carboxylic acid methyl ester]	40	45	0	35	–	–	–	–	–
–	COC(=O)c1nc(-c2cc(Cl)c(Cl)cc2F)nc(N)c1Cl [Compound 10, 6-Amino-5-chloro-2-(4,5-dichloro-2-fluorophenyl)pyrimidine-4-carboxylic acid methyl ester]	95	90	–	100	–	–	–	–	–
–	Cc1ccc(-c2nc(N)c(Cl)c(C(=O)O)n2)c(F)c1 [Compound 13, 6-Amino-5-chloro-2-(2-fluoro-4-methylphenyl)pyrimidine-4-carboxylic acid]	–	–	–	–	50	95	10	95	–
–	Cc1ccc(-c2nc(N)c(Cl)c(C(=O)O)n2)c(F)c1F [Compound 14, 6-Amino-5-chloro-2-(2,3-difluoro-4-methylphenyl)pyrimidine-4-carboxylic acid]	85	90	95	80	40	100	30	100	60
–	Nc1nc(-c2cc(Cl)c(Cl)cc2F)nc(C(=O)O)c1Cl [Compound 17, 6-Amino-5-chloro-2-(4,5-dichloro-2-fluorophenyl)pyrimidine-4-carboxylic acid]	90	85	–	95	–	–	–	–	–
–	Cc1cc(F)c(-c2nc(N)c(Cl)c(C(=O)O)n2)cc1F [Compound 18, 6-Amino-5-chloro-2-(2,5-difluoro-4-methylphenyl)pyrimidine-4-carboxylic acid]	100	100	75	40	–	–	–	–	–
131 to 132	CCOC(=O)c1nc(-c2ccc(Cl)cc2F)nc(N)c1Cl [Compound 19, 6-Amino-5-chloro-2-(4-chloro-2-fluorophenyl)pyrimidine-4-carboxylic acid ethyl ester]	95	99	80	100	–	–	–	–	–
–	COC(=O)c1nc(-c2cc(F)c(Cl)cc2F)nc(N)c1Cl [Compound 20, 6-Amino-5-chloro-2-(4-chloro-2,5-difluorophenyl)-pyrimidine-4-carboxylic acid methyl ester]	95	99	95	100	–	–	–	–	–
